For series [1], the system named is cisplatin-induced mechanical hyperalgesia. Kind of series: Von Frey test for mechanical hyperalgesia in cisplatin-treated mice. Conditions: for effect on existing cisplatin-induced mechanical hyperalgesia: 7 daily doses starting 3 days after last cisplatin dose. Type of series: in vivo. On the procedure: Adult male C57/Bl6J mice received cisplatin intraperitoneally (i.p.) (2.3 mg/kg) daily for five days, followed by five days rest and a second round of five days of cisplatin treatment. Three days after the last dose of cisplatin, mice received the HDAC6 inhibitor, compound 001, a compound of Formula (I), i.p. for seven to fourteen days at 3 mg/kg or 10 mg/kg.
(§1) To quantify signs of cisplatin-induced pain, the von Frey test was used (see below) which measures the decrease in threshold to induce a withdrawal response to a mechanical stimulus (hyperalgesia, one of the characteristics of CIPN). To assess cisplatin-induced numbness, the adhesive removal test (ART) was used. The time it took for the mouse to have a behavioral response to the patch (i.e. shaking or attempted removal) was recorded as a measure of sensory deficit or numbness. To determine if behavioral changes were due to altered general activity or motor function, the locomotor activity (LMA) test and the rotarod test was used. For LMA mice were placed in an open-field testing cage and movement was measured for 5 minutes. For the rotarod, mice were trained for two days and then tested on the rotarod (with increasing speeds) for 5 minutes. Time on the rotarod was recorded.
Allodynic response to tactile stimulation is assessed using the Von Frey apparatus (Touch Test®).
The animal is placed in an enclosure and positioned on a metal mesh surface, but allowed to move freely. The animals' cabins are covered with red cellophane to diminish environmental disturbances. The test begins after a cessation of exploratory behavior. The set of Von Frey monofilaments provide an approximate logarithmic scale of actual force and a linear scale of perceived intensity.
The operating principle: when the tip of a fiber of given length and diameter is pressed against the skin at right angles, the force of application increases as long as the researcher continues to advance the probe until the fiber bends. After the fiber bends, the probe continues to advance, causing the fiber to bend more, but without additional force being applied.
The Touch Test™ Sensory Evaluator can be used on the plantar surfaces of the rat's foot. The animal indicates sensation by pulling back its paw. The minimal force needed to elevate the withdrawal reflex is considered/designated as the value of reference. In order to achieve paw withdrawal, the pressure applied is sometimes greater than 60 g, often requiring the researcher to apply enough pressure with the Von Frey filament to actually lift the paw of the naive animal. Decreases in force needed to induce withdrawal are indicative of hyperalgesia, as the force applied is a non-painful stimulus under normal conditions.
Cisplatin (TEVA Pharmaceuticals, North Wales, Pa.) was diluted in sterile saline and administered intraperitoneally (i.p.) at a dose of 2.3 mg/kg daily for 5 days, followed by 5 days of rest, and a second round of 5 doses for a total cumulative dose of 23 mg/kg cisplatin. It was shown that this dosing schedule induces mechanical hyperalgesia in mice (Qi-Liang Mao-Ying A K, et al. The anti-diabetic drug metformin protects against chemotherapy-induced peripheral neuropathy in a mouse model. Clinical Cancer Research. 2014; Krukowski K, et al. Prevention of chemotherapy-induced peripheral neuropathy by the small-molecule inhibitor pifithrin-mu. Pain. 2015; 156(11):2184-92). HDAC6 inhibitor, compound 001, (Acetylon Pharmaceuticals, Boston, Mass.) was dissolved in 20% 2-hydroxypropyl-β-cyclodextrin+0.5% hydroxypropyl methylcellulose (Sigma-Aldrich, St. Louis, Mo.) in water and administered i.p. at a dose of 10 mg/kg or 3 mg/kg. […]

In another series the test system is general activity. Kind of series: Locomotor activity (LMA) test. Conditions: in combination with cisplatin. Type of series: in vivo, mice. The protocol: as §1
A further series has as its system GFAP. Kind of series: GFAP immunofluorescence of lumbar spinal cord dorsal horn (astrocyte activation). In kind it is in vivo, mice. Conditions: two rounds of cisplatin, then 3 doses of 10 mg/kg. The source says:
For quantification of astrocyte and microglia activation, lumbar spinal cords were collected on day 22. This collection day was after completion of cisplatin treatment and 3 injections of compound 001. […] Spinal cords were processed and stained with antibodies specific for GFAP and Iba-1. Images were captured under blinded conditions from the lumbar dorsal horn using a Leica SPE confocal microscope (Leica Microsystems, Buffalo Grove, Ill.).
For assessing astrocyte activation, paraformaldehyde fixed frozen 6 μm sections of lumbar spinal cord (L1-L6) were incubated with an antibody against glial fibrillary acidic protein (GFAP) (Rabbit; Abcam, Cambridge, Mass.) followed by Alexa-594-goat anti-rabbit IgG (Life Technologies, Carlsbad, Calif.) as described (Zhang H, et al. Evidence that spinal astrocytes but not microglia contribute to the pathogenesis of Paclitaxel-induced painful neuropathy. J. Pain, 2012; 13(3):293-303). Images were captured using a Leica SPE confocal microscope (Leica Microsystems, Buffalo Grove, Ill.). GFAP staining intensity was quantified using Image J software for percent positive GFAP staining in which intensity thresholds were maintained between samples. All immunofluorescence analysis were done by an experimenter blinded to the treatment groups.

Series [2] concerns mitochondrial respiration in tibial nerves. Kind of series: Mitochondrial bioenergetics analysis of tibial nerves (XF24). In kind it is in vivo, mice. The protocol:
Tibial nerves were collected on experimental day 30, when the mice have received 2 rounds of cisplatin treatment and 11 injections of compound 001. Tissues were placed into islet capture XF24 microplate (Seahorse Bioscience, North Billerica, Mass.) in XF media with the addition of 5.5 mM glucose, 0.5 mM sodium pyruvate and 1 mM glutamine. Oligomycin (12 μM), FCCP (Carbonyl cyanide 4-(trifluoromethoxy)phenylhydrazone, 20 μM), and Rotenone/Antimycin A (20 μM each) (Sigma-Aldrich, St. Louis, Mo.) were injected sequentially during the assay. An assay cycle with a combination of 3-min mix, 3-min wait, and 4-min measure was repeated 4 times for baseline rates and after each port injection. After the respiratory measures, tissues were harvested and the oxygen consumption rate (OCR) values were normalized to the total protein content of each well. Basal respiration, ATP-linked respiration, proton leak, and maximal respiratory capacity were determined as described previously (Brand M D, and Nicholls D G. Assessing mitochondrial dysfunction in cells. The Biochemical journal. 2011; 435(2):297-312; Ma J, et al. Heat shock protein 70 is necessary to improve mitochondrial bioenergetics and reverse diabetic sensory neuropathy following KU-32 therapy. The Journal of pharmacology and experimental therapeutics. 2014; 348(2):281-92). Briefly, the initial measurements provide a measure of the basal OCR in the absence of respiratory chain poisons. The amount of basal OCR that is coupled to ATP production was determined by addition of the ATP synthase inhibitor oligomycin, which decreased the basal OCR. […] Next, maximal respiratory capacity (MRC) was assessed by addition of the protonophore FCCP, which dissipates the mitochondrial membrane potential and promotes maximal OCR. Lastly, non-mitochondrial respiration was determined by the addition of rotenone and antimycin A, which inhibit the activities of mitochondrial respiratory chain complex I and complex III respectively.

The mark [3] stands for this setting: 2 rounds of cisplatin and 11 injections of compound.

As for `O=C(NO)c1cnc(NC2(c3ccccc3)CCC(F)(F)CC2)nc1` [compound 001], the “effect on existing cisplatin-induced mechanical hyperalgesia” value in series [1] (3 mg/kg i.p.) was “did not”. For the same compound, the “effect of prolonged treatment on mechanical hyperalgesia” value in series [1] (10 mg/kg for two consecutive weeks starting 3 days after last cisplatin dose) was “complete and sustained recovery from mechanical hyperalgesia”. In addition, the “duration of beneficial effect of prolonged regimen” value in series [1] (10 mg/kg for two consecutive weeks, followed to experiment termination) is given as “maintained until at least one month after the last dose”. In addition, the “effect on existing cisplatin-induced mechanical hyperalgesia” value in series [1] (10 mg/kg i.p.) is reported as “effectively relieved cisplatin-induced mechanical hyperalgesia”. The “time after first dose at which effect on mechanical allodynia was first detected” value in series [1] (10 mg/kg i.p., cisplatin-treated mice) was found to be 24 h. The “mechanical sensitivity, compound alone” value in series [1] (10 mg/kg, without cisplatin) is “did not alter mechanical sensitivity”. Also, in series [1] (7 daily doses of 10 mg/kg), the “time after last dose until which beneficial effect on mechanical hyperalgesia was maintained” value was 4 days. The “prevention of development of mechanical hyperalgesia” value in series [1] (administered i.p. one hour prior to each dose of cisplatin) is “prevented the development of mechanical hyperalgesia”. Further, the “effect of second round of treatment on mechanical hyperalgesia” value in series [1] (second round of 7 daily injections, 10 mg/kg, after 7 days rest) was “transiently reversed cisplatin-induced mechanical hyperalgesia”. Moreover, the “general activity (locomotor activity)” value in the series with general activity was “no effect on general activity”. In the series on GFAP, the “GFAP expression in dorsal horn of spinal cord” value is listed as “normalized GFAP expression to levels of saline-treated animals”. Also, in series [2] (setting [3]), the “mitochondrial respiration (basal, ATP-linked, proton leak, maximal) in tibial nerves” value is given as “normalized all aspects of the cisplatin-induced decrease in mitochondrial respiration” and the “non-mitochondrial respiration in tibial nerves” value is on record as “not altered”. In series [2] (without cisplatin), the “mitochondrial bioenergetics, compound alone” value was “did not have any effect on mitochondrial bioenergetics”.

These data come from patent US11013740B2, “Histone deacetylase 6 selective inhibitors for the treatment of cisplatin-induced peripheral neuropathy” (REGENACY PHARMACEUTICALS, LLC, priority 2015, dated 2021).
